ChEMBL document CHEMBL1125070, “Benzotriazinones as "virtual ring" mimics of o-methoxybenzamides: novel and potent 5-HT3 receptor antagonists” (J Med Chem, 1990)

target: Serotonin 3 (5-HT3) receptor (Rattus norvegicus) (UniProt P35563+Q9JJ16); assay: Antagonistic activity against 5-hydroxytryptamine 3 receptor as inhibition of 5-HT-induced bradycardia (von Bezold-jarisch reflex) in anesthetized rat; assay type: functional

`COc1ccc(Cl)cc1C(=O)NC1CC2CCC(C1)N2C` (stereo unspecified) and `COc1cc(N)ccc1C(=O)NC1CC2CCC(C1)N2C` (stereo unspecified) are within 1.5-fold of each other in ID50: 0.015 mg/kg for the first, 0.016 mg/kg for the second.

First: CN1C2CCC1CC(n1nnc3ccc(Cl)cc3c1=O)C2 (stereo unspecified)
Second: CN1C2CCC1CC(n1nnc3ccccc3c1=O)C2 (stereo unspecified)
The ID50 of the first is lower: 0.012 mg/kg for the first, greater than 0.05 mg/kg for the second.

First: Nc1cc2nnn(C3CN4CCC3CC4)c(=O)c2cc1Cl (stereo unspecified)
Second: CN1C2CCC1CC(n1nnc3cc([N+](=O)[O-])c(Cl)cc3c1=O)C2 (stereo unspecified)
The ID50 of the first is 3.6-fold lower: 0.0036 mg/kg for the first, 0.013 mg/kg for the second.

Going from `CN1[C@@H]2CC[C@H]1C[C@@H](OC(=O)c1cc(Cl)cc(Cl)c1)C2` to `CN1[C@@H]2CC[C@H]1C[C@@H](OC(=O)c1c[nH]c3ccccc13)C2`, the ID50 falls from 0.035 mg/kg to 0.0014 mg/kg (25-fold).

First: CN1C2CCC1CC(NC(=O)c1ccc(N)c(Cl)c1)C2 (stereo unspecified)
Second: COc1cc(N)c(Cl)cc1C(=O)NC1CC2CCC(C1)N2C (stereo unspecified)
The ID50 of the first is 45-fold higher: 0.036 mg/kg for the first, 0.0008 mg/kg for the second.

With `CN1C2CCC1CC(n1cnc3cc(N)c(Cl)cc3c1=O)C2` (stereo unspecified) the ID50 was 0.33 mg/kg.
